Experimental data taken from ChEMBL document CHEMBL1671643, “Relative strengths of the class 1 integron promoter hybrid 2 and the combinations of strong and hybrid 1 with an active p2 promoter” (2009).
≈ marks a conversion by molar mass, not a printed value.

Experiments:
Type in all cases: functional
Escherichia coli [1] = test: Antimicrobial activity against Escherichia coli MC4100 harboring promoter hybrid 1 in beta-lactamase GES-1 by Etest
Escherichia coli [2] = test: Antimicrobial activity against Escherichia coli MC4100 harboring a weak promoter in beta-lactamase GES-1 by Etest
Escherichia coli [3] = test: Antimicrobial activity against Escherichia coli MC4100 harboring promoter hybrid 1 and active promoter P2 in beta-lactamase GES-1 by Etest
Escherichia coli [4] = test: Antimicrobial activity against Escherichia coli MC4100 expressing promoterless beta-lactamase GES-1 by Etest
Escherichia coli [5] = test: Antimicrobial activity against Escherichia coli MC4100 harboring strong promoter in beta-lactamase GES-1 by Etest
Escherichia coli [6] = test: Antimicrobial activity against Escherichia coli MC4100 harboring weak promoter and active promoter P2 in beta-lactamase GES-1 by Etest
Escherichia coli [7] = test: Antimicrobial activity against Escherichia coli MC4100 harboring promoter hybrid 2 in beta-lactamase GES-1 by Etest
Escherichia coli [8] = test: Antimicrobial activity against Escherichia coli MC4100 harboring strong promoter and active promoter P2 in beta-lactamase GES-1 by Etest

SMILES	MIC (Escherichia coli [1]) [µg/mL]	MIC (Escherichia coli [2]) [µg/mL]	MIC (Escherichia coli [3]) [µg/mL]	MIC (Escherichia coli [4]) [µg/mL]	MIC (Escherichia coli [5]) [µg/mL]	MIC (Escherichia coli [6]) [µg/mL]	MIC (Escherichia coli [7]) [µg/mL]	MIC (Escherichia coli [8]) [µg/mL]
CC1(C)S[C@@H]2[C@H](NC(=O)[C@H](N)c3ccc(O)cc3)C(=O)N2[C@H]1C(=O)O [AMOXICILLIN]	> 256	> 256	> 256	4 (≈ 10.9 µM)	> 256	> 256	> 256	> 256
C[C@H]1[C@H](NC(=O)/C(=N\OC(C)(C)C(=O)O)c2csc(N)n2)C(=O)N1S(=O)(=O)O [AZTREONAM]	0.047 (≈ 0.108 µM)	0.047 (≈ 0.108 µM)	0.125 (≈ 0.287 µM)	–	0.19 (≈ 0.436 µM)	0.094 (≈ 0.216 µM)	0.094 (≈ 0.216 µM)	0.25 (≈ 0.574 µM)
N[C@@H](C(=O)N[C@@H]1C(=O)N2C(C(=O)O)=C(Cl)CS[C@H]12)c1ccccc1 [CEFACLOR ANHYDROUS]	8 (≈ 21.8 µM)	6 (≈ 16.3 µM)	24 (≈ 65.3 µM)	1.5 (≈ 4.08 µM)	256 (≈ 696 µM)	24 (≈ 65.3 µM)	24 (≈ 65.3 µM)	256 (≈ 696 µM)
CO/N=C(\C(=O)N[C@@H]1C(=O)N2C(C(=O)[O-])=C(C[N+]3(C)CCCC3)CS[C@H]12)c1csc(N)n1 [CEFEPIME]	0.064 (≈ 0.133 µM)	0.032 (≈ 0.0666 µM)	0.125 (≈ 0.26 µM)	0.032 (≈ 0.0666 µM)	0.19 (≈ 0.395 µM)	0.094 (≈ 0.196 µM)	0.125 (≈ 0.26 µM)	0.19 (≈ 0.395 µM)
CC(C)(O/N=C(\C(=O)N[C@@H]1C(=O)N2C(C(=O)[O-])=C(C[n+]3ccccc3)CS[C@H]12)c1csc(N)n1)C(=O)O [CEFTAZIDIME]	1.5 (≈ 2.74 µM)	0.75 (≈ 1.37 µM)	6 (≈ 11 µM)	0.064 (≈ 0.117 µM)	12 (≈ 22 µM)	4 (≈ 7.32 µM)	4 (≈ 7.32 µM)	16 (≈ 29.3 µM)
CO/N=C(\C(=O)N[C@@H]1C(=O)N2C(C(=O)O)=C(COC(N)=O)CS[C@H]12)c1ccco1 [CEFUROXIME]	32 (≈ 75.4 µM)	8 (≈ 18.9 µM)	256 (≈ 603 µM)	2 (≈ 4.71 µM)	> 256	96 (≈ 226 µM)	128 (≈ 302 µM)	> 256
CCN1CCN(C(=O)N[C@@H](C(=O)N[C@@H]2C(=O)N3[C@@H]2SC(C)(C)[C@@H]3C(=O)O)c2ccccc2)C(=O)C1=O [PIPERACILLIN]	4 (≈ 7.73 µM)	2 (≈ 3.86 µM)	16 (≈ 30.9 µM)	1 (≈ 1.93 µM)	24 (≈ 46.4 µM)	12 (≈ 23.2 µM)	12 (≈ 23.2 µM)	24 (≈ 46.4 µM)
